Laboratory results as given in ChEMBL document CHEMBL3885861, “Open TG-GATES”.

Organism: Rattus norvegicus
Assay: Open TG-GATES - Regimen: Daily Repeat
Assay type: toxicity, organism-based, Sprague-Dawley
Parameters: regimen Daily Repeat, gender Male, age 6 weeks
Conditions: in vivo, po, route gavage; for Fbg / Hb / Ht / Lym / MCV / Mono / Neu / Plat / RBC / Ret / WBC / Bas / Eos / MCHC / PT: tissue Blood; for ALP / ALT / AST / BUN / CRE / Ca / Cl / DBIL / GLC / IP / K / LDH / Na / PL / RALB / TBIL / TC / TG / TP / gamma-GTP: tissue Plasma
[1] = 100 mg/kg, 72 h, dose level Low, time 3 day
[2] = 100 mg/kg, […], dose level Low, time 7 day
[3] = 100 mg/kg, […], dose level Low, time 14 day
[4] = 100 mg/kg, […], dose level Low, time 28 day
[5] = 300 mg/kg, 72 h, dose level Middle, time 3 day

O=C(O)c1cccnc1 [NIACIN]
Fbg [1]: 317.2 mg/dL | Hb [1]: 13.7 g/dL | Ht [1]: 40.5% | Lym [1]: 70.2% | MCV [1]: 63.5 fL | Mono [1]: 4% | Neu [1]: 23.2% | Plat [1]: 107.5 x10_4/uL | RBC [1]: 637 x10_4/ul | Ret [1]: 6.9% | WBC [1]: 128.4 x10_2/uL | ALP [1]: 1717.8 IU/L | ALT [1]: 49 IU/L | AST [1]: 79.2 IU/L | BUN [1]: 16 mg/dL | CRE [1]: 0.1 mg/dL | Ca [1]: 10.8 mg/dL | Cl [1]: 104.2 meq/L | DBIL [1]: 0 mg/dL | GLC [1]: 199.8 mg/dL | IP [1]: 7.4 mg/dL | K [1]: 3.9 meq/L | LDH [1]: 171.8 IU/L | Na [1]: 139.2 meq/L | PL [1]: 163.8 mg/dL | RALB [1]: 3.1 g/dL | TBIL [1]: 0 mg/dL | TC [1]: 84.2 mg/dL | TG [1]: 110.8 mg/dL | TP [1]: 5.8 g/dL | gamma-GTP [1]: 1.2 IU/L | TERMINAL_BW [2]: 273.1 g | TERMINAL_BW [3]: 326.9 g | TERMINAL_BW [4]: 387.9 g | Bas [2]: 0% | Eos [2]: 1% | Fbg [2]: 316 mg/dL | Hb [2]: 13.5 g/dL | Ht [2]: 39.5% | Lym [2]: 82% | MCHC [2]: 34.1% | MCV [2]: 60.8 fL | Mono [2]: 3% | Neu [2]: 12.8% | PT [2]: 16 s | Plat [2]: 109.3 x10_4/uL | RBC [2]: 650 x10_4/ul | Ret [2]: 5.9% | WBC [2]: 109.2 x10_2/uL | Bas [3]: 0% | Eos [3]: 1% | Fbg [3]: 330.8 mg/dL | Ht [3]: 41.5% | Lym [3]: 75.2% | MCHC [3]: 34% | Mono [3]: 2.6% | Neu [3]: 20% | PT [3]: 15.8 s | Plat [3]: 107.6 x10_4/uL | RBC [3]: 685 x10_4/ul | Ret [3]: 4.7% | WBC [3]: 102.7 x10_2/uL | Bas [4]: 0% | Eos [4]: 1% | Fbg [4]: 330.4 mg/dL | Hb [4]: 15.2 g/dL | Ht [4]: 43.1% | Lym [4]: 83.4% | MCHC [4]: 35.3% | MCV [4]: 56 fL | Mono [4]: 2.4% | Neu [4]: 11.8% | PT [4]: 16.5 s | Plat [4]: 102.2 x10_4/uL | RBC [4]: 770 x10_4/ul | Ret [4]: 2.8% | WBC [4]: 117.4 x10_2/uL | ALP [2]: 1740.2 IU/L | ALT [2]: 44.4 IU/L | AST [2]: 69 IU/L | BUN [2]: 17.2 mg/dL | CRE [2]: 0.2 mg/dL | Ca [2]: 10.7 mg/dL | Cl [2]: 104.8 meq/L | DBIL [2]: 0 mg/dL | GLC [2]: 171.4 mg/dL | IP [2]: 7.3 mg/dL | K [2]: 4.7 meq/L | LDH [2]: 141 IU/L | Na [2]: 138.8 meq/L | PL [2]: 145 mg/dL | RALB [2]: 2.9 g/dL | TBIL [2]: 0 mg/dL | TC [2]: 66.6 mg/dL | TG [2]: 150 mg/dL | TP [2]: 5.5 g/dL | gamma-GTP [2]: 1.4 IU/L | ALP [3]: 1532.6 IU/L | ALT [3]: 42.8 IU/L | AST [3]: 73.6 IU/L | BUN [3]: 17 mg/dL | CRE [3]: 0.2 mg/dL | Ca [3]: 10.5 mg/dL | Cl [3]: 104.6 meq/L | DBIL [3]: 0 mg/dL | GLC [3]: 196.4 mg/dL | IP [3]: 6.4 mg/dL | K [3]: 4 meq/L | LDH [3]: 209 IU/L | Na [3]: 138.4 meq/L | PL [3]: 144.4 mg/dL | RALB [3]: 3 g/dL | TBIL [3]: 0.002 mg/dL | TC [3]: 66.8 mg/dL | TG [3]: 150.8 mg/dL | TP [3]: 5.8 g/dL | gamma-GTP [3]: 1.4 IU/L | ALP [4]: 1249.8 IU/L | ALT [4]: 39.8 IU/L | AST [4]: 64.6 IU/L | BUN [4]: 18.2 mg/dL | CRE [4]: 0.2 mg/dL | Ca [4]: 10.4 mg/dL | Cl [4]: 107 meq/L | DBIL [4]: 0 mg/dL | GLC [4]: 192.8 mg/dL | IP [4]: 6.5 mg/dL | K [4]: 4.2 meq/L | LDH [4]: 129.4 IU/L | Na [4]: 143.4 meq/L | PL [4]: 147.6 mg/dL | RALB [4]: 3.1 g/dL | TBIL [4]: 0.014 mg/dL | TC [4]: 70.6 mg/dL | TG [4]: 158.8 mg/dL | TP [4]: 6 g/dL | gamma-GTP [4]: 2 IU/L | TERMINAL_BW [5]: 241.8 g | Bas [5]: 0%
